# Test results taken from patent publication US10167262B2, “Herbicidal substituted 3-arylpyrazoles” (FMC CORPORATION, priority 2014, dated 2019).
# Like-named read-outs stand apart in the source and are kept apart here.
# Experiments:
# Assay in all cases: Test C pre-/postemergence greenhouse test, plant response rating 0-100;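 as to Plant response rating (0 to 100), Blackgrass: 0 is no effect and 100 is complete control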;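 as to Plant response rating (0 to 100), Ragweed: 0 is no effect and 100 is complete control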;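 as to Plant response rating, Blackgrass: 0 is no effect and 100 is complete control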;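 as to Plant response rating, Ragweed: 0 is no effect and 100 is complete control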
# Assay type in all cases: in vivo
# [1] = test system: Italian ryegrass (Lolium multiflorum); conditions: Lolium multiflorum; for pest or weed control at 62 g/ha: 62 g ai/ha; for pest or weed control at 125 g/ha: 125 g ai/ha; for pest or weed control at 250 g/ha: 250 g ai/ha
# Summary of the method: (§1)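 Visual 0–100 control scores, taken 13 to 15 days post-application in a greenhouse, reflect treatment preemergence (seed in loam soil with sand) or postemergence (2–18 cm plants in peat moss, vermiculite medium). A dash marks no result.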
# [2] = test system: blackgrass (Alopecurus myosuroides); conditions: Alopecurus myosuroides; for pest or weed control at 62 g/ha: 62 g ai/ha; for pest or weed control at 125 g/ha: 125 g ai/ha; for pest or weed control at 250 g/ha: 250 g ai/ha;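 as to all read-outs here: 0 is no effect and 100 is complete control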
# Summary of the method: as §1
# corn (Zea mays) = conditions: Zea mays; for Corn plant response rating (crop injury, 0 = no effect, 100 = complete kill) at 250 g/ha: 250 g ai/ha
# Summary of the method: as §1
# [3] = test system: giant foxtail (Setaria faberii); conditions: Setaria faberi; for pest or weed control at 62 g/ha: 62 g ai/ha; for pest or weed control at 125 g/ha: 125 g ai/ha; for pest or weed control at 250 g/ha: 250 g ai/ha
# Summary of the method: as §1
# [4] = test system: johnsongrass (Sorghum halepense); conditions: Sorghum halepense; for pest or weed control at 62 g/ha: 62 g ai/ha; for pest or weed control at 125 g/ha: 125 g ai/ha; for pest or weed control at 250 g/ha: 250 g ai/ha
# Summary of the method: as §1
# [5] = test system: lambsquarters (Chenopodium album); conditions: Chenopodium album; for pest or weed control at 62 g/ha: 62 g ai/ha; for pest or weed control at 125 g/ha: 125 g ai/ha; for pest or weed control at 250 g/ha: 250 g ai/ha
# Summary of the method: as §1
# [6] = test system: large (Lg) crabgrass (Digitaria sanguinalis); conditions: Digitaria sanguinalis; for pest or weed control at 62 g/ha: 62 g ai/ha; for pest or weed control at 125 g/ha: 125 g ai/ha; for pest or weed control at 250 g/ha: 250 g ai/ha
# Summary of the method: as §1
# [7] = test system: pigweed (Amaranthus retroflexus); conditions: Amaranthus retroflexus; for pest or weed control at 62 g/ha: 62 g ai/ha; for pest or weed control at 125 g/ha: 125 g ai/ha; for pest or weed control at 250 g/ha: 250 g ai/ha
# Summary of the method: as §1
# [8] = test system: ragweed (common ragweed, Ambrosia elatior); conditions: Ambrosia artemisiifolia; for pest or weed control at 62 g/ha: 62 g ai/ha; for pest or weed control at 125 g/ha: 125 g ai/ha; for pest or weed control at 250 g/ha: 250 g ai/ha;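 as to all read-outs here: 0 is no effect and 100 is complete control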
# Summary of the method: as §1
# soybean (Glycine max) = conditions: Glycine max; for plant injury at 62 g/ha: 62 g ai/ha; for plant injury at 125 g/ha: 125 g ai/ha; for plant injury at 250 g/ha: 250 g ai/ha
# Summary of the method: as §1
# [9] = test system: velvetleaf (Abutilon theophrasti); conditions: Abutilon theophrasti; for pest or weed control at 62 g/ha: 62 g ai/ha; for pest or weed control at 125 g/ha: 125 g ai/ha; for pest or weed control at 250 g/ha: 250 g ai/ha
# Summary of the method: as §1
# [10] = test system: winter wheat (Triticum aestivum); conditions: Triticum aestivum; for plant injury at 62 g/ha: 62 g ai/ha; for plant injury at 125 g/ha: 125 g ai/ha; for plant injury at 250 g/ha: 250 g ai/ha
# Summary of the method: as §1
# [11] = test system: yellow nutsedge (Cyperus esculentus); conditions: Cyperus; for pest or weed control at 62 g/ha: 62 g ai/ha; for pest or weed control at 125 g/ha: 125 g ai/ha; for pest or weed control at 250 g/ha: 250 g ai/ha
# Summary of the method: as §1
# [12] = post-emergence, Postemergence, read-out: Plant response rating (0 to 100), Ryegrass, Italian
# [13] = post-emergence, Postemergence, scale 0 to 100
# [14] = post-emergence, Postemergence, 500 g ai/ha, scale 0 to 100
# [15] = pre-emergence, Preemergence, read-out: Plant response rating, Ryegrass, Italian
# [16] = pre-emergence, Preemergence, read-out: Plant response rating, Blackgrass
# [17] = pre-emergence, Preemergence, 31 g ai/ha
# [18] = post-emergence, Postemergence, read-out: Plant response rating (0 to 100), Foxtail, Giant
# [19] = pre-emergence, Preemergence, read-out: Plant response rating, Foxtail, Giant
# [20] = post-emergence, Postemergence, read-out: Plant response rating (0 to 100), Johnsongrass
# [21] = pre-emergence, Preemergence, read-out: Plant response rating, Johnsongrass
# [22] = post-emergence, Postemergence, read-out: Plant response rating (0 to 100), Lambsquarters
# [23] = pre-emergence, Preemergence, read-out: Plant response rating, Lambsquarters
# [24] = post-emergence, Postemergence, read-out: Plant response rating (0 to 100), Crabgrass, Large
# [25] = pre-emergence, Preemergence, read-out: Plant response rating, Crabgrass, Large
# [26] = post-emergence, Postemergence, read-out: Plant response rating (0 to 100), Pigweed
# [27] = pre-emergence, Preemergence, read-out: Plant response rating, Pigweed
# [28] = post-emergence, Postemergence, read-out: Plant response rating (0 to 100), Ragweed
# [29] = pre-emergence, Preemergence, read-out: Plant response rating, Ragweed
# [30] = post-emergence, Postemergence, read-out: Plant response rating (0 to 100), Soybean
# [31] = pre-emergence, Preemergence, read-out: Plant response rating, Soybean
# [32] = post-emergence, Postemergence, read-out: Plant response rating (0 to 100), Velvetleaf
# [33] = pre-emergence, Preemergence, read-out: Plant response rating, Velvetleaf
# [34] = post-emergence, Postemergence, read-out: Plant response rating (0 to 100), Wheat
# [35] = pre-emergence, Preemergence, read-out: Plant response rating, Wheat
# [36] = post-emergence, Postemergence, read-out: Plant response rating (0 to 100), Nutsedge, Yellow
# [37] = pre-emergence, Preemergence, read-out: Plant response rating, Nutsedge, Yellow
smiles,measurement,setting,value
"O=C(c1ccccc1)c1cn(CO)nc1-c1cc(Cl)cc(Cl)c1 [Compound 15, [3-(3,5-dichlorophenyl)-1-(hydroxymethyl)-1H-pyrazol-4-yl]phenylmethanone]",pest or weed control at 62 g/ha,[1]; [12],0%
same,pest or weed control at 125 g/ha,[1]; [12],0%
same,pest or weed control at 250 g/ha,[1]; [13],0%
same,pest or weed control at 500 g/ha,[1]; [14],0%
same,pest or weed control at 62 g/ha,[1]; [15],0%
same,pest or weed control at 125 g/ha,[1]; [15],0%
same,pest or weed control at 250 g/ha,"[1]; pre-emergence, Preemergence",0%
same,pest or weed control at 62 g/ha,"[2]; post-emergence, Postemergence, read-out: Plant response rating (0 to 100), Blackgrass",0%
same,pest or weed control at 125 g/ha,"[2]; post-emergence, Postemergence, scale 0 to 100, read-out: Plant response rating, Blackgrass",0%
same,pest or weed control at 250 g/ha,[2]; [13],0%
same,pest or weed control at 500 g/ha,[2]; [14],0%
same,pest or weed control at 31 g/ha,"[2]; pre-emergence, Preemergence, 31 g ai/ha, read-out: Plant response rating, Blackgrass",0%
same,pest or weed control at 62 g/ha,[2]; [16],0%
same,pest or weed control at 125 g/ha,[2]; [16],0%
same,pest or weed control at 250 g/ha,"[2]; pre-emergence, Preemergence",0%
same,plant injury at 62 g/ha,"corn (Zea mays); post-emergence, Postemergence, 62 g ai/ha",0%
same,plant injury at 125 g/ha,"corn (Zea mays); post-emergence, Postemergence, 125 g ai/ha",0%
same,"Corn plant response rating (crop injury, 0 = no effect, 100 = complete kill) at 250 g/ha",corn (Zea mays); [13],0%
same,"Corn plant response rating (crop injury, 0 = no effect, 100 = complete kill) at 500 g/ha",corn (Zea mays); [14],0%
same,"Corn plant response rating (crop injury, 0 = no effect, 100 = complete kill) at 31 g/ha",corn (Zea mays); [17],0%
same,"Corn plant response rating (crop injury, 0 = no effect, 100 = complete kill) at 62 g/ha","corn (Zea mays); pre-emergence, Preemergence, 62 g ai/ha",0%
same,"Corn plant response rating (crop injury, 0 = no effect, 100 = complete kill) at 125 g/ha","corn (Zea mays); pre-emergence, Preemergence, 125 g ai/ha",0%
same,"Corn plant response rating (crop injury, 0 = no effect, 100 = complete kill) at 250 g/ha","corn (Zea mays); pre-emergence, Preemergence",0%
same,pest or weed control at 62 g/ha,[3]; [18],0%
same,pest or weed control at 125 g/ha,[3]; [18],0%
same,pest or weed control at 250 g/ha,[3]; [13],0%
same,pest or weed control at 500 g/ha,[3]; [14],10%
same,pest or weed control at 31 g/ha,"[3]; pre-emergence, Preemergence, 31 g ai/ha, read-out: Plant response rating, Foxtail, Giant",0%
same,pest or weed control at 62 g/ha,[3]; [19],0%
same,pest or weed control at 125 g/ha,[3]; [19],0%
same,pest or weed control at 250 g/ha,"[3]; pre-emergence, Preemergence",0%
same,pest or weed control at 62 g/ha,[4]; [20],0%
same,pest or weed control at 125 g/ha,[4]; [20],0%
same,pest or weed control at 250 g/ha,[4]; [13],0%
same,pest or weed control at 500 g/ha,[4]; [14],0%
same,pest or weed control at 31 g/ha,[4]; [17],0%
same,pest or weed control at 62 g/ha,[4]; [21],0%
same,pest or weed control at 125 g/ha,[4]; [21],0%
same,pest or weed control at 250 g/ha,"[4]; pre-emergence, Preemergence",0%
same,pest or weed control at 62 g/ha,[5]; [22],75%
same,pest or weed control at 125 g/ha,[5]; [22],80%
same,pest or weed control at 250 g/ha,[5]; [13],80%
same,pest or weed control at 500 g/ha,[5]; [14],90%
same,pest or weed control at 31 g/ha,[5]; [17],100%
same,pest or weed control at 62 g/ha,[5]; [23],100%
same,pest or weed control at 125 g/ha,[5]; [23],100%
same,pest or weed control at 250 g/ha,"[5]; pre-emergence, Preemergence",100%
same,pest or weed control at 62 g/ha,[6]; [24],0%
same,pest or weed control at 125 g/ha,[6]; [24],0%
same,pest or weed control at 250 g/ha,[6]; [13],0%
same,pest or weed control at 500 g/ha,[6]; [14],0%
same,pest or weed control at 31 g/ha,"[6]; pre-emergence, Preemergence, 31 g ai/ha, read-out: Plant response rating, Crabgrass, Large",0%
same,pest or weed control at 62 g/ha,[6]; [25],0%
same,pest or weed control at 125 g/ha,[6]; [25],0%
same,pest or weed control at 250 g/ha,"[6]; pre-emergence, Preemergence",0%
same,pest or weed control at 62 g/ha,[7]; [26],90%
same,pest or weed control at 125 g/ha,[7]; [26],100%
same,pest or weed control at 250 g/ha,[7]; [13],100%
same,pest or weed control at 500 g/ha,[7]; [14],100%
same,pest or weed control at 31 g/ha,[7]; [17],100%
same,pest or weed control at 62 g/ha,[7]; [27],100%
same,pest or weed control at 125 g/ha,[7]; [27],100%
same,pest or weed control at 250 g/ha,"[7]; pre-emergence, Preemergence",100%
same,pest or weed control at 62 g/ha,[8]; [28],60%
same,pest or weed control at 125 g/ha,[8]; [28],75%
same,pest or weed control at 250 g/ha,[8]; [13],85%
same,pest or weed control at 500 g/ha,[8]; [14],85%
same,pest or weed control at 62 g/ha,[8]; [29],35%
same,pest or weed control at 125 g/ha,[8]; [29],95%
same,pest or weed control at 250 g/ha,"[8]; pre-emergence, Preemergence",100%
same,plant injury at 62 g/ha,soybean (Glycine max); [30],0%
same,plant injury at 125 g/ha,soybean (Glycine max); [30],0%
same,plant injury at 250 g/ha,soybean (Glycine max); [13],0%
same,plant injury at 500 g/ha,soybean (Glycine max); [14],5%
same,plant injury at 62 g/ha,soybean (Glycine max); [31],0%
same,plant injury at 125 g/ha,soybean (Glycine max); [31],0%
same,plant injury at 250 g/ha,"soybean (Glycine max); pre-emergence, Preemergence",0%
same,pest or weed control at 62 g/ha,[9]; [32],80%
same,pest or weed control at 125 g/ha,[9]; [32],80%
same,pest or weed control at 250 g/ha,[9]; [13],90%
same,pest or weed control at 500 g/ha,[9]; [14],90%
same,pest or weed control at 62 g/ha,[9]; [33],60%
same,pest or weed control at 125 g/ha,[9]; [33],100%
same,pest or weed control at 250 g/ha,"[9]; pre-emergence, Preemergence",100%
same,plant injury at 62 g/ha,[10]; [34],0%
same,plant injury at 125 g/ha,[10]; [34],0%
same,plant injury at 250 g/ha,[10]; [13],0%
same,plant injury at 500 g/ha,[10]; [14],0%
same,plant injury at 62 g/ha,[10]; [35],0%
same,plant injury at 125 g/ha,[10]; [35],0%
same,plant injury at 250 g/ha,"[10]; pre-emergence, Preemergence",0%
same,pest or weed control at 62 g/ha,[11]; [36],0%
same,pest or weed control at 125 g/ha,[11]; [36],0%
same,pest or weed control at 250 g/ha,[11]; [13],0%
same,pest or weed control at 500 g/ha,[11]; [14],0%
same,pest or weed control at 31 g/ha,[11]; [17],0%
same,pest or weed control at 62 g/ha,[11]; [37],0%
same,pest or weed control at 125 g/ha,[11]; [37],0%
same,pest or weed control at 250 g/ha,"[11]; pre-emergence, Preemergence",0%
